Reference: patent US7332482B2, “Method for treating benign prostatic hyperplasia” (BioXell S.p.A., priority 2003, dated 2008)
“Also recorded” adds a separate entry of the source.

Experiments:
rat ventral prostate [1] = experiment: Clusterin expression (Northern, immunohistochemistry) and TUNEL in rat ventral prostate; assay type: in vivo
Experimental: Total RNA was extracted using RNAFast from Molecular System (San Diego, Calif.). Blotting, labelling, hybridization conditions and probes (rat clusterin 1.5 Kb full-length cDNA and GAPDH 1.2 Kb full-length cDNA) were performed according to the reported procedures (Bettuzzi et al, Biochemical Journal, (1989), 257, p 293-296 and Marinelli et al, Biochemistry and Cell Biology, (1994), 72, p 515-521). Quantitation of the autoradiograms was obtained by densitometric scanning using an LKB Ultrascan XL densitometer.
All the cryostatic sections obtained from controls and treated rats were processed in parallel as previously described (Astancolle et al, Journal of Endocrinology, (2000), 167, p 197-204). For every experimental condition, 3 alternate sections from 3 different rat prostates were examined. […] Counterstaining was performed with haematoxylin, and cover slips were mounted with Eukitt (O. Kindler GmbH & Co, Germany). Digital high-magnification colour images were acquired by a CCD camera through the microscope.
DNA fragmentation in prostate cryostatic sections, assessed by terminal deoxynucleotidyl transferase (TdT)-mediated dUTP nick end-labelling (TUNEL), was performed using the In Situ Cell Death Detection Kit (POD, Roche) as recommended by the manufacturer. TUNEL positive apoptotic nuclei were documented by digital high-magnification colour images acquired by a CCD camera through the microscope. Counterstaining was performed with eosin, and cover slips were mounted with Eukitt (O Kindler GmbH & Co, Germany).

BPH cells = experiment: BPH cell proliferation assay; assay type: cell-based, human; conditions: 48 h
Experimental: Human BPH cells, prepared, maintained and used as previously described in Crescioli C, et al. Journal of Clinical and Endocrinology Metabolism (2000) 85 p 2576-2583, were obtained from prostate tissues derived from 5 patients, who underwent suprapubic adenomectomy for BPH, after informed consent and approval by the Local Ethical Committee.
For all cell proliferation assay, 4×10^4 BPH cells were seeded onto 12-well plates in their growth medium, starved in red- and serum-free medium containing 0.1% BSA for 24 h, and then treated with specific stimuli for 48 h. Cells in phenol red- and serum-free medium containing 0.1% BSA were used as controls. Thereafter, cells were trypsinized, and each experimental point was derived from hemocytometer counting, averaging at least six different fields for each well, as previously reported (see Crescioli C, et al. Journal of Clinical and Endocrinology Metabolism (2000) 85 p 2576-2583). […] Growth assays were also carried out using a fixed concentration of androgens (10 nM) with or without Compound A (1 nM, 10 nM) or the anti-androgens finasteride (F, 1 nM) and cyproterone acetate (Cyp, 100 nM). Growth assays were also performed using a fixed concentration of T (10 nM) or GFs (10 ng/ml) with or without Compound A (10 nM). In the same experiment, each experimental point was repeated in triplicate or quadruplicate and experiments were performed 3 times. Results are expressed as % variation (mean±SEM) over the maximal T or GF-induced stimulation.

AR = molecular target: T1, AR (Homo sapiens, UniProt P10275); experiment: Luciferase assay in AR-transfected PC3 cells; assay type: cell-based; parameters: In PC3 cells expressing the full length AR coupled to a luciferase report gene; expressed in transfected cells; host or cells: PC3 (AR-deficient human prostate adenocarcinoma), stably transfected with p5HbhAR-A; conditions: increasing concentrations, alone or with DHT 3 nM
T1 sequence (P10275 1-920): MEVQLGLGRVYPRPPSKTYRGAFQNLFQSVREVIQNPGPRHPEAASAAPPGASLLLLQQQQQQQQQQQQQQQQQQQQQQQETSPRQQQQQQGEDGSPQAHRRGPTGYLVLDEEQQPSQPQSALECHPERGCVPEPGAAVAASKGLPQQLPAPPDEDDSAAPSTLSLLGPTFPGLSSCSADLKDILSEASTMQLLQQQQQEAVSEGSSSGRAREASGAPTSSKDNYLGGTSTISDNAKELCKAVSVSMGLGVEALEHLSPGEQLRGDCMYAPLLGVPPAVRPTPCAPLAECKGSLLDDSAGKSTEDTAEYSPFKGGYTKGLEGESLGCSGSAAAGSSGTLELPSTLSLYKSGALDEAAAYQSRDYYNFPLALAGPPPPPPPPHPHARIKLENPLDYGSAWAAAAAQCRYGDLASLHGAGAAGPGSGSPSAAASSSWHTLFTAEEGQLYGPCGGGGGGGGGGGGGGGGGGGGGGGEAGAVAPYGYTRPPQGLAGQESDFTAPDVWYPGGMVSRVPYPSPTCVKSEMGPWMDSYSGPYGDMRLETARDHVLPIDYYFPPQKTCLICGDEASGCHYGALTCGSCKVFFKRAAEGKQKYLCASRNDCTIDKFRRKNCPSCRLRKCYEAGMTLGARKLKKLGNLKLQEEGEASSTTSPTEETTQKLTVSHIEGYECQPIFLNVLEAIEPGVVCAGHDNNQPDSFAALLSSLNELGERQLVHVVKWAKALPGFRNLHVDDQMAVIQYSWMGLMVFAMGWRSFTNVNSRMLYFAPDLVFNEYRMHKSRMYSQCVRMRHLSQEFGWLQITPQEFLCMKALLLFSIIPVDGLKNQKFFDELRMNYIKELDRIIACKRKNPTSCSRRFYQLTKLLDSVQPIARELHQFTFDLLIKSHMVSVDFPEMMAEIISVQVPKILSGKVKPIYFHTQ
Experimental: PC3 cells stably transfected with human AR were plated in 24-well plates at a density of 2×10^4 in Ham's F12 plus 10% FCS. […] Transfected cells incubated with ethanol only served as positive controls.
The Luciferase assay was performed with a Berthold luminometer according to the manufacturer's instructions (Luciferase Assay System, Promega, Milan, Italy). The cells were lysed directly in the plate with 200 μl of lysis buffer. Luciferase activity was measured on 20 μl of cell lysate for 10 s after addition of 100 μl of luciferine. Total protein measurement was performed on 20 μl of cell lysate. At least three independent assays were done in duplicate.

rat ventral prostate [2] = experiment: Ventral prostate growth in castrated, T enanthate-supplemented rats; assay type: in vivo; conditions: castrated rats + T enanthate 30 mg/Kg/week; oral, 9 administrations; Compound A 10-300 μg/Kg, finasteride 10, 40 mg/Kg
Experimental: Male Sprague Dawley rats (28 days old) were purchased from Charles River Laboratories (Calco, Lecco, Italy). All animal experimentation described was conducted in accord with accepted standards of animal care. Castration was performed via the scrotal route under ketamine/xylazine anaesthesia.

C=C1/C(=C\C=C2/CCC[C@]3(C)C([C@@H](C)C/C=C/C(O)(CC)CC)=CC[C@@H]23)C[C@@H](O)C[C@@H]1F [Compound A, 1-alpha-fluoro-25-hydroxy-16,23E-diene-26,27-bishomo-20-epi-cholecalciferol]
DNA fragmentation / apoptosis in ventral prostate (TUNEL) (rat ventral prostate [1]; castrated T-supplemented rats, 100 and 300 μg/Kg, 9 administrations): induced an evident nuclear fragmentation in epithelial and stromal cells; also recorded: induced massive apoptosis in the majority of epithelial and stromal cells
clusterin staining and apoptosis in prostate (immunohistochemistry, TUNEL) (rat ventral prostate [1]; intact adult rats, Compound A 10, 30, 100 μg/Kg, finasteride 40 mg/Kg): induced clusterin expression; also recorded: dose-dependently stained for clusterin
clusterin mRNA expression in ventral prostate (Northern) (rat ventral prostate [1]; intact rats, one month, 30 and 100 μg/Kg): induced a sustained increase
clusterin mRNA expression in ventral prostate (Northern) (rat ventral prostate [1]; orchidectomized T-supplemented rats, Compound A 300 and 100 μg/Kg, F 40 mg/Kg): partially blunted the T-induced down-regulation of clusterin gene expression
effect on growth of androgen-unstimulated BPH cells (BPH cells; Compound A 1 nM): reduced growth
effect on DHT-stimulated BPH cell proliferation (BPH cells; DHT 10 nM, Compound A 1 nM, F 1 nM, Cyp 100 nM): antagonized; also recorded: significantly blocked
effect on T-stimulated BPH cell proliferation (BPH cells; T 10 nM, Compound A 1 nM, F 1 nM, Cyp 100 nM): antagonized; also recorded: significantly blocked
Imax, inhibition of T- or GF-stimulated BPH cell growth (BPH cells; T 10 nM, KGF or Des(1-3)IGF-I 10 ng/ml): 66.6±7.3%
maximal inhibition (Imax) of BPH cell growth (BPH cells; unstimulated BPH cells, Imax shared by both secosteroids): 43±1%
effect on AR-mediated luciferase activity (agonist/antagonist) (AR): neither stimulated nor inhibited
effect on T-stimulated prostate over-growth (ventral prostate weight) (rat ventral prostate [2]): completely blunted
